We go through four compounds from patent US20260317327A1, “CRYSTRAL OF QUINOLINE-SUBSTITUTED COMPOUND” (TAIHO PHARMACEUTICAL CO., LTD., priority 2023, published 2026).

Data set [1] is described as follows: Dynamic vapor sorption (DVS) test. It counts as physicochemical. The method, then:
A vapor sorption test was performed by using each of the type I crystal, solvate crystal type “b”, and amorphous solid of the compound (1) obtained in Example 1, Comparative Example 1, and Reference Example 1, respectively. The vapor sorption test was performed in accordance with the following conditions. About 10 mg of a sample was loaded into a dedicated holder made of quartz, and the weights of the sample at respective humidities were continuously measured and recorded under the following conditions.

Data set [2] can be described thus: Solid stability test (closed system, storage at 60 °C or 80 °C, HPLC purity, crystal form, appearance). The note with it: for Change amount (purity) 2 weeks after / Purity 2 weeks after / Color tone change 2 weeks after / Change amount (purity) 4 weeks after / Purity 4 weeks after / Color tone change 4 weeks after: closed system; for Color tone change 2 weeks after / Color tone change 4 weeks after: visual; for Purity at the beginning: HPLC 220 nm. It counts as physicochemical. Here is the method:
A temperature influence was tested by using the type I crystal, solvate crystal type “b”, and amorphous solid of the compound (1) obtained in Example 1, Comparative Example 1, and Reference Example 1, respectively. An evaluation was performed by the following procedure. In addition, with regard to the appearances of the crystals and the amorphous solid, the states thereof before and after their storage were visually observed. • Storage condition: 60° C. or 80° C. (closed system) (HIFLEX (high-temperature storage machine manufactured by ETAC Engineering Co., Ltd.)) • Storage period: 2 weeks and 4 weeks • Storage amount: about 100 mg • Storage container: a glass bottle
A change in amount of related substances (amount of substances detected in addition to the compound (1)) was analyzed by HPLC in accordance with the following method. A product obtained as follows was used as a sample for analysis: about 1 mg of each sample was weighed as the compound (1); the sample was dissolved in 10 mL of a mixed liquid of acetonitrile and water (3:1 v/v); and 5 μL of the liquid was accurately weighed out.
The amount of the related substances in the sample solution was measured by HPLC analysis. The handling of each apparatus including data processing followed a method and a procedure instructed in the apparatus. • Column: InertSustain C18HP (4.6 mm×150 mm, 3 μm) manufactured by GL Sciences Inc. • UV detection: 220 nm • Column temperature: 40° C. • Flow rate: 1.0 mL/min • Sample cooler: 5° C. • Sample concentration: 0.1 mg/mL • Mobile phase A: 0.1% phosphoric acid • Mobile phase B: acetonitrile

Data set [3] in a line: Comparison of type I crystal with metastable crystal and hydrate crystal (hygroscopicity, storage stability; data not shown). In kind it is physicochemical. The note with it: compared to metastable crystal and hydrate crystal. The text has this: In addition to Comparative Example 1, a metastable crystal and a hydrate crystal of the compound (1) were obtained and compared with the type I crystal obtained according to the method described in Example 1.

Another data set relates to EGFR. The settings on record: as disclosed in Patent Document 1 (WO 2015/025936 A1); cited from earlier work.

As to `C=CC(=O)N[C@H]1C=C(C)c2c(-c3cnc4ccccc4c3)c3c(N)ncnc3n2C1` [Amorphous solid, (S)—N-(4-amino-6-methyl-5-(quinolin-3-yl)-8,9-dihydropyrimido[5,4-b]indolizin-8-yl)acrylamide], the Weight increase in data set [1] (50% RH, 25 °C) is ≥ 2%. Besides, the Weight increase result in data set [1] (95% RH, 25 °C) was “about 10%”. In addition, in data set [2] (60 °C), the “Change amount (purity) 2 weeks after” value is −0.66%, the “Purity 2 weeks after” value is listed as 98.09%, the “Color tone change 2 weeks after” value is “Absent” and the “Change amount (purity) 4 weeks after” value is given as −0.85%. In data set [2] (60 °C), the “Purity 4 weeks after” value stood at 97.90% and the “Color tone change 4 weeks after” value is recorded as “Absent”. Further, in data set [2] (80 °C), the “Change amount (purity) 2 weeks after” value is −6.38%, the “Purity 2 weeks after” value is 92.37%, the “Color tone change 2 weeks after” value is on record as “Coloring” and the “Change amount (purity) 4 weeks after” value is −7.90%. Further, in data set [2] (80 °C), the “Purity 4 weeks after” value was determined as 90.85% and the “Color tone change 4 weeks after” value is “Coloring”. Besides, in data set [2] (storage at 60 °C series), the “Purity at the beginning” value is 98.75%. Further, the “Purity at the beginning” value in data set [2] (storage at 80 °C series) came out at 98.75%.
With `C=CC(=O)N[C@H]1C=C(C)c2c(-c3cnc4ccccc4c3)c3c(N)ncnc3n2C1` [Solvate crystal type “b”, (S)—N-(4-amino-6-methyl-5-(quinolin-3-yl)-8,9-dihydropyrimido[5,4-b]indolizin-8-yl)acrylamide], the “Weight increase profile (in words)” value in data set [1] (5-95% RH, 25 °C) is “substantially linear weight increase starting from a low-humidity region”. Moreover, in data set [1] (95% RH, 25 °C), the Weight increase is listed as ≥ 5%. In data set [2] (60 °C), the “Change amount (purity) 2 weeks after” value was −10.60%, the “Purity 2 weeks after” value is reported as 88.16%, the “Color tone change 2 weeks after” value is listed as “Absent” and the “Change amount (purity) 4 weeks after” value is reported as −11.55%. In addition, in data set [2] (60 °C), the “Purity 4 weeks after” value turned out to be 87.21% and the “Color tone change 4 weeks after” value is “Absent”. Further, in data set [2] (80 °C), the “Change amount (purity) 2 weeks after” value is −14.49%, the “Purity 2 weeks after” value amounted to 84.57%, the “Color tone change 2 weeks after” value was “Absent” and the “Change amount (purity) 4 weeks after” value was −15.38%. Also, in data set [2] (80 °C), the “Purity 4 weeks after” value is recorded as 83.38% and the “Color tone change 4 weeks after” value is recorded as “Absent”. Besides, the “Purity at the beginning” value in data set [2] (storage at 60 °C series) stood at 98.76%. Further, in data set [2] (storage at 80 °C series), the “Purity at the beginning” value is reported as 98.76%.
As for `C=CC(=O)N[C@H]1C=C(C)c2c(-c3cnc4ccccc4c3)c3c(N)ncnc3n2C1` [Type I crystal, (S)—N-(4-amino-6-methyl-5-(quinolin-3-yl)-8,9-dihydropyrimido[5,4-b]indolizin-8-yl)acrylamide], in data set [3], the “Hygroscopicity, storage stability, etc. (in words)” value is reported as “better properties in terms of hygroscopicity, storage stability, etc”. Further, the Weight increase in data set [1] (95% RH, 25 °C) is listed as 1.28%. Besides, the “Hygroscopicity (in words)” value in data set [1] (compared to the solvate crystal type “b” and amorphous solid) is given as “less hygroscopic”. Besides, the Weight increase entry in data set [1] (up to 75% RH, 25 °C) is given as “less than 0.4%”. Also, in data set [2] (60 °C / 80 °C, 2 and 4 weeks), the “Chemical purity on storage (in words)” value is listed as “substantially remained unchanged” and the “Overall stability of crystal (in words)” value was “extremely stable crystal”. In addition, the “Amount of related substances on storage (in words)” value in data set [2] (60 °C / 80 °C, 2 and 4 weeks, HPLC) is recorded as “substantially no increase in amount of related substances”. Besides, the “Crystal form and color tone on storage (in words)” value in data set [2] (60 °C / 80 °C, 2 and 4 weeks, compared to solvate crystal type “b” and amorphous solid) was “showed no changes”. Moreover, in data set [2] (60 °C), the “Change amount (purity) 2 weeks after” value was found to be 0.06%, the “Purity 2 weeks after” value is on record as 98.90%, the “Color tone change 2 weeks after” value is given as “Absent” and the “Change amount (purity) 4 weeks after” value came to 0.02%. In data set [2] (60 °C), the “Purity 4 weeks after” value amounted to 98.86% and the “Color tone change 4 weeks after” value is given as “Absent”. In data set [2] (80 °C), the “Change amount (purity) 2 weeks after” value was 0.05%, the “Purity 2 weeks after” value came out at 98.89%, the “Color tone change 2 weeks after” value is listed as “Absent” and the “Change amount (purity) 4 weeks after” value was 0.07%. For the same compound, in data set [2] (80 °C), the “Purity 4 weeks after” value turned out to be 98.91% and the “Color tone change 4 weeks after” value was “Absent”. In addition, the “Purity at the beginning” value in data set [2] (storage at 60 °C series) came to 98.84%. The “Purity at the beginning” value in data set [2] (storage at 80 °C series) came to 98.84%.
With `C=CC(=O)N[C@H]1C=C(C)c2c(-c3cnc4ccccc4c3)c3c(N)ncnc3n2C1` [compound (1), (S)—N-(4-amino-6-methyl-5-(quinolin-3-yl)-8,9-dihydropyrimido[5,4-b]indolizin-8-yl)acrylamide], the “EGFR-inhibiting action (in words)” value in the data set on EGFR is listed as “excellent EGFR-inhibiting action”.
